# Results published in PMC11277489, “Novel Piperazine Derivatives of Vindoline as Anticancer Agents” (International Journal of Molecular Sciences, 2024).
# Assays:
# CCRF-CEM = experiment: NCI60 one-dose screen (10 μM), Leukemia; assay type: cell-based; conditions: Homo sapiens, 10 μM, Leukemia, read-out: Growth percent rate
# HL-60(TB) = experiment: NCI60 one-dose screen (10 μM), Leukemia; assay type: cell-based; conditions: Homo sapiens; 10 μM; HL-60(TB), Leukemia; read-out: Growth percent rate
# K-562 = experiment: NCI60 one-dose screen (10 μM), Leukemia; assay type: cell-based; conditions: Homo sapiens, K562; 10 μM; K-562, Leukemia; read-out: Growth percent rate
# MOLT-4 = experiment: NCI60 one-dose screen (10 μM), Leukemia; assay type: cell-based, human; conditions: Homo sapiens; 10 μM; MOLT-4, Leukemia; read-out: Growth percent rate
# A549/ATCC = experiment: NCI60 one-dose screen (10 μM), Non-small Cell Lung Cancer; assay type: cell-based; conditions: Homo sapiens; 10 μM; A549/ATCC, Non-small Cell Lung Cancer; read-out: Growth percent rate
# EKVX = experiment: as above; assay type: cell-based; conditions: Homo sapiens, 10 μM, Non-small Cell Lung Cancer, read-out: Growth percent rate
# NCI-H23 = experiment: as above; assay type: cell-based; conditions: Homo sapiens; 10 μM; NCI-H23, Non-small Cell Lung Cancer; read-out: Growth percent rate
# NCI-H322M = experiment: as above; assay type: cell-based; conditions: Homo sapiens, 10 μM, Non-small Cell Lung Cancer, read-out: Growth percent rate
# NCI-H460 = experiment: as above; assay type: cell-based; conditions: Homo sapiens; 10 μM; NCI-H460, Non-small Cell Lung Cancer; read-out: Growth percent rate
# NCI-H522 = experiment: as above; assay type: cell-based; conditions: Homo sapiens; 10 μM; NCI-H522, Non-small Cell Lung Cancer; read-out: Growth percent rate
# COLO 205 = experiment: NCI60 one-dose screen (10 μM), Colon Cancer; assay type: cell-based, human; conditions: Homo sapiens; 10 μM; COLO 205, Colon Cancer; read-out: Growth percent rate
# HCC-2998 = experiment: NCI60 one-dose screen (10 μM), Colon Cancer; assay type: cell-based; conditions: Homo sapiens; 10 μM; HCC-2998, Colon Cancer; read-out: Growth percent rate
# HCT-116 = experiment: NCI60 one-dose screen (10 μM), Colon Cancer; assay type: cell-based; conditions: Homo sapiens; 10 μM; HCT-116, Colon Cancer; read-out: Growth percent rate
# HCT-15 = experiment: NCI60 one-dose screen (10 μM), Colon Cancer; assay type: cell-based; conditions: Homo sapiens; 10 μM; HCT-15, Colon Cancer; read-out: Growth percent rate
# HT29 = experiment: NCI60 one-dose screen (10 μM), Colon Cancer; assay type: cell-based; conditions: Homo sapiens, HT-29; 10 μM; HT29, Colon Cancer; read-out: Growth percent rate
# KM12 = experiment: NCI60 one-dose screen (10 μM), Colon Cancer; assay type: cell-based, human; conditions: Homo sapiens; 10 μM; KM12, Colon Cancer; read-out: Growth percent rate
# SW-620 = experiment: NCI60 one-dose screen (10 μM), Colon Cancer; assay type: cell-based; conditions: Homo sapiens; 10 μM; SW-620, Colon Cancer; read-out: Growth percent rate
# SF-268 = experiment: NCI60 one-dose screen (10 μM), CNS Cancer; assay type: cell-based; conditions: Homo sapiens; 10 μM; SF-268, CNS Cancer; read-out: Growth percent rate
# SF-295 = experiment: NCI60 one-dose screen (10 μM), CNS Cancer; assay type: cell-based; conditions: Homo sapiens; 10 μM; SF-295, CNS Cancer; read-out: Growth percent rate
# SF-539 = experiment: NCI60 one-dose screen (10 μM), CNS Cancer; assay type: cell-based, human; conditions: Homo sapiens; 10 μM; SF-539, CNS Cancer; read-out: Growth percent rate
# SNB-19 = experiment: NCI60 one-dose screen (10 μM), CNS Cancer; assay type: cell-based; conditions: Homo sapiens; 10 μM; SNB-19, CNS Cancer; read-out: Growth percent rate
# SNB-75 = experiment: NCI60 one-dose screen (10 μM), CNS Cancer; assay type: cell-based, human; conditions: Homo sapiens; 10 μM; SNB-75, CNS Cancer; read-out: Growth percent rate
# LOX IMVI = experiment: NCI60 one-dose screen (10 μM), Melanoma; assay type: cell-based, human; conditions: Homo sapiens; 10 μM; LOX IMVI, Melanoma; read-out: Growth percent rate
# MALME-3M = experiment: NCI60 one-dose screen (10 μM), Melanoma; assay type: cell-based; conditions: Homo sapiens; 10 μM; MALME-3M, Melanoma; read-out: Growth percent rate
# M14 = experiment: NCI60 one-dose screen (10 μM), Melanoma; assay type: cell-based; conditions: Homo sapiens; 10 μM; M14, Melanoma; read-out: Growth percent rate
# MDA-MB-435 = experiment: NCI60 one-dose screen (10 μM), Melanoma; assay type: cell-based; conditions: Homo sapiens; 10 μM; MDA-MB-435, Melanoma; read-out: Growth percent rate
# SK-MEL-2 = experiment: NCI60 one-dose screen (10 μM), Melanoma; assay type: cell-based; conditions: Homo sapiens; 10 μM; SK-MEL-2, Melanoma; read-out: Growth percent rate
# SK-MEL-28 = experiment: NCI60 one-dose screen (10 μM), Melanoma; assay type: cell-based; conditions: Homo sapiens; 10 μM; SK-MEL-28, Melanoma; read-out: Growth percent rate
# SK-MEL-5 = experiment: NCI60 one-dose screen (10 μM), Melanoma; assay type: cell-based, human; conditions: Homo sapiens; 10 μM; SK-MEL-5, Melanoma; read-out: Growth percent rate
# UACC-257 = experiment: NCI60 one-dose screen (10 μM), Melanoma; assay type: cell-based; conditions: Homo sapiens; 10 μM; UACC-257, Melanoma; read-out: Growth percent rate
# IGROV1 = experiment: NCI60 one-dose screen (10 μM), Ovarian Cancer; assay type: cell-based; conditions: Homo sapiens, IGROV-1; 10 μM; IGROV1, Ovarian Cancer; read-out: Growth percent rate
# OVCAR-3 = experiment: NCI60 one-dose screen (10 μM), Ovarian Cancer; assay type: cell-based; conditions: Homo sapiens; 10 μM; OVCAR-3, Ovarian Cancer; read-out: Growth percent rate
# OVCAR-4 = experiment: NCI60 one-dose screen (10 μM), Ovarian Cancer; assay type: cell-based; conditions: Homo sapiens; 10 μM; OVCAR-4, Ovarian Cancer; read-out: Growth percent rate
# OVCAR-8 = experiment: NCI60 one-dose screen (10 μM), Ovarian Cancer; assay type: cell-based; conditions: Homo sapiens; 10 μM; OVCAR-8, Ovarian Cancer; read-out: Growth percent rate
# 786–0 = experiment: NCI60 one-dose screen (10 μM), Renal Cancer; assay type: cell-based; conditions: Homo sapiens; 10 μM; 786-0, Renal Cancer; read-out: Growth percent rate
# ACHN = experiment: NCI60 one-dose screen (10 μM), Renal Cancer; assay type: cell-based; conditions: Homo sapiens, 10 μM, Renal Cancer, read-out: Growth percent rate
# CAKI-1 = experiment: NCI60 one-dose screen (10 μM), Renal Cancer; assay type: cell-based; conditions: Homo sapiens; 10 μM; CAKI-1, Renal Cancer; read-out: Growth percent rate
# RXF 393 = experiment: NCI60 one-dose screen (10 μM), Renal Cancer; assay type: cell-based, human; conditions: Homo sapiens; 10 μM; RXF 393, Renal Cancer; read-out: Growth percent rate
# SN12C = experiment: NCI60 one-dose screen (10 μM), Renal Cancer; assay type: cell-based; conditions: Homo sapiens, 10 μM, Renal Cancer, read-out: Growth percent rate
# DU-145 = experiment: NCI60 one-dose screen (10 μM), Prostate Cancer; assay type: cell-based; conditions: Homo sapiens; 10 μM; DU-145, Prostate Cancer; read-out: Growth percent rate
# MCF7 = experiment: NCI60 one-dose screen (10 μM), Breast Cancer; assay type: cell-based; conditions: Homo sapiens; 10 μM; MCF7, Breast Cancer; read-out: Growth percent rate
# [1] = test system: 60 human tumor cell lines (NCI60); experiment: NCI60 one-dose screen (10 μM), whole panel; assay type: cell-based
compound,measurement,setting,value
CC[C@]12C=CCN3CC[C@@]4(c5ccc(OC)cc5N(C)[C@H]4[C@@](O)(C(=O)OC)[C@@H]1OC(=O)CCCN1CCN(Cc4ccc(C(F)(F)F)cc4)CC1)[C@@H]32 [Compound 23],activity at 10 µM,CCRF-CEM,-63.1%
same,activity at 10 µM,HL-60(TB),-65.8%
same,activity at 10 µM,K-562,-73.3%
same,activity at 10 µM,MOLT-4,-68.5%
same,activity at 10 µM,A549/ATCC,-67.8%
same,activity at 10 µM,EKVX,-75.1%
same,activity at 10 µM,NCI-H23,-71.3%
same,activity at 10 µM,NCI-H322M,-48.2%
same,activity at 10 µM,NCI-H460,-84.7%
same,activity at 10 µM,NCI-H522,-59.3%
same,activity at 10 µM,COLO 205,-82.9%
same,activity at 10 µM,HCC-2998,-83.6%
same,activity at 10 µM,HCT-116,-89.3%
same,activity at 10 µM,HCT-15,-68.1%
same,activity at 10 µM,HT29,-54.4%
same,activity at 10 µM,KM12,-70.9%
same,activity at 10 µM,SW-620,-87.1%
same,activity at 10 µM,SF-268,-55.1%
same,activity at 10 µM,SF-295,-86.7%
same,activity at 10 µM,SF-539,-98.5%
same,activity at 10 µM,SNB-19,-89.1%
same,activity at 10 µM,SNB-75,-68.8%
same,activity at 10 µM,LOX IMVI,-54.4%
same,activity at 10 µM,MALME-3M,-95.2%
same,activity at 10 µM,M14,-88.9%
same,activity at 10 µM,MDA-MB-435,-95.3%
same,activity at 10 µM,SK-MEL-2,-72.6%
same,activity at 10 µM,SK-MEL-28,-94.8%
same,activity at 10 µM,SK-MEL-5,-98.5%
same,activity at 10 µM,UACC-257,-82.2%
same,activity at 10 µM,IGROV1,-71%
same,activity at 10 µM,OVCAR-3,-68.4%
same,activity at 10 µM,OVCAR-4,-32.1%
same,activity at 10 µM,OVCAR-8,-42%
same,activity at 10 µM,786–0,-95.7%
same,activity at 10 µM,ACHN,-78.1%
same,activity at 10 µM,CAKI-1,-78%
same,activity at 10 µM,RXF 393,-85.3%
same,activity at 10 µM,SN12C,-4.35%
same,activity at 10 µM,DU-145,-64.9%
same,activity at 10 µM,MCF7,-74.3%
same,growth rate,"[1]; 10 μM one-dose, on almost all tested cancer types and cell lines, negative = lethality",< −60%
same,activity at 10 µM,"[1]; 10 μM, mean over 60 human cancer cell lines, read-out: Growth percent rate, Mean",-71.8%
